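The compound was tested at five concentrations on cells cultured in 96-well plates, with a 48-hour exposure period. GI50 marks 50% less growth.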 Activity calls are given as the source filed them. Rule as the data show it: active = GI50 up to about 1.1 µM and inactive = higher.

Some test systems named below: HOP-62; MDA-MB-435; RXF 393; TK-10; SK-MEL-2; SNB-19; PC-3; T47D; BT-549; ACHN; SF-268; SN12C; SK-MEL-5; OVCAR-8; EKVX; HOP-92; UACC-62; A549; Hs-578T; SR.
What all share (assay): DTP human tumour cell line panel, 48 h

As usually defined, the GI50 is the concentration that inhibits growth by half. As to `CCCCCCCCCCCCCCCCCCNc1ccn(C2OC(COP(=O)(O)O)C(O)C2O)c(=O)n1` (stereo not drawn), the GI50 in the test on HOP-62, in the test on MDA-MB-435, with RXF 393, in the test on TK-10, in the test with SK-MEL-2 and with SNB-19 was > 100 µM (inactive) each time. Moreover, the GI50 in the test with PC-3, in the test on T47D, in the test with BT-549, in the test on ACHN, with SF-268 and in the test with SN12C was > 100 µM (inactive) throughout. Further, the GI50 with SK-MEL-5, in the test with OVCAR-8, with EKVX, with HOP-92, in the test on UACC-62 and in the test on A549 was > 100 µM (inactive) throughout. Besides, the GI50 with Hs-578T was > 100 µM (inactive).

Take `COc1ccc([C@H]2[C@H]3COC(=O)[C@H]3C(C#N)=C3Sc4ccccc4N32)cc1`: the GI50 was 39 µM (inactive) with HOP-62; 44.2 µM (inactive) in the test with MDA-MB-435; 3.11 µM (inactive) in the test with RXF 393; 40.6 µM (inactive) in the test on TK-10; 19.1 µM (inactive) in the test with SK-MEL-2; 48.3 µM (inactive) in the test on SNB-19. In addition, the GI50 with PC-3 is 17.3 µM (inactive); in the test on T47D it was 8.89 µM (inactive); in the test on BT-549, 5.37 µM (inactive); in the test on ACHN, 37.6 µM (inactive); in the test on SF-268, 71.6 µM (inactive); in the test with SN12C, 15.1 µM (inactive). The GI50 was 21.1 µM (inactive) in the test with SK-MEL-5; 51.3 µM (inactive) with OVCAR-8; 37.4 µM (inactive) in the test on EKVX; 85.1 µM (inactive) in the test on HOP-92; 28.8 µM (inactive) in the test on UACC-62; 30.5 µM (inactive) in the test with A549. Besides, in the test with Hs-578T, the GI50 is 31.1 µM (inactive).

On to `CC(C)(C)CN1[C@@H]2CCCC[C@H]2N(CC(C)(C)C)P1(=O)Cc1ccccc1`, for which the GI50 is 16.4 µM (inactive) with HOP-62; 16.2 µM (inactive) with MDA-MB-435; 10.8 µM (inactive) in the test on RXF 393; 12.5 µM (inactive) in the test with TK-10; 16.1 µM (inactive) with SK-MEL-2; 14.6 µM (inactive) in the test on SNB-19. For the same compound, the GI50 in the test on PC-3 is 6.5 µM (inactive); in the test on T47D, 10.1 µM (inactive); in the test with BT-549, 17.1 µM (inactive); in the test with ACHN, 15.2 µM (inactive); with SF-268 it was 15 µM (inactive); in the test on SN12C it was 16.3 µM (inactive). Further, the GI50 in the test with SK-MEL-5 was 12.2 µM (inactive); in the test with OVCAR-8 it was 14.4 µM (inactive); with EKVX, 14.3 µM (inactive); in the test with UACC-62 it was 10.7 µM (inactive); in the test on SR it was 11.8 µM (inactive); in the test with A549, 11.6 µM (inactive). For the same compound, the GI50 in the test with Hs-578T is 15.7 µM (inactive).

For the compound `O=C1c2cscc2C(=O)C1(O)O`, the GI50 in the test on HOP-62 was > 100 µM (inactive); in the test with MDA-MB-435, 32.6 µM (inactive); with TK-10, > 100 µM (inactive); in the test with SK-MEL-2 it was > 100 µM (inactive); in the test on SNB-19, > 100 µM (inactive); in the test on PC-3 it was 78 µM (inactive). Also, the GI50 in the test on T47D is 18.6 µM (inactive); in the test with BT-549, 31.5 µM (inactive); in the test on ACHN it was > 100 µM (inactive); with SF-268 it was > 100 µM (inactive); in the test with SN12C, 20 µM (inactive); with SK-MEL-5, > 100 µM (inactive). Moreover, the GI50 in the test on OVCAR-8 is 32.9 µM (inactive); in the test on EKVX, 36.1 µM (inactive); in the test on HOP-92, 31.7 µM (inactive); with UACC-62, > 100 µM (inactive); in the test on SR, 19.1 µM (inactive); in the test on A549, > 100 µM (inactive). Moreover, the GI50 in the test on Hs-578T was > 100 µM (inactive).

In the case of `CC1(C)O[C@@H]2[C@@H](COC(=O)c3ccccc3)C[C@@H](C#N)[C@@H]2O1`, the GI50 in the test with HOP-62, in the test on MDA-MB-435, in the test with RXF 393, with TK-10, with SNB-19 and in the test on PC-3 was > 100 µM (inactive) each time. The GI50 with T47D, in the test on BT-549, with ACHN, in the test on SF-268, with SN12C and with SK-MEL-5 was > 100 µM (inactive) each time. The GI50 is > 100 µM (inactive) with OVCAR-8; > 100 µM (inactive) with HOP-92; > 100 µM (inactive) in the test on UACC-62; > 100 µM (inactive) in the test with SR; > 100 µM (inactive) with A549; 29.2 µM (inactive) with Hs-578T.

Take `CC(=O)Oc1ccc2c(c1)O/C(=C\c1ccc(O)cc1)C2=O`: the GI50 in the test with HOP-62, with MDA-MB-435, in the test with RXF 393, in the test with TK-10, in the test with SNB-19 and in the test with PC-3 was > 100 µM (inactive) in each case. Also, the GI50 with T47D, in the test with BT-549, in the test with ACHN, with SF-268, in the test with SN12C and in the test with SK-MEL-5 was > 100 µM (inactive) throughout. Besides, the GI50 is > 100 µM (inactive) with OVCAR-8; > 100 µM (inactive) with EKVX; > 100 µM (inactive) in the test on UACC-62; > 100 µM (inactive) in the test with SR; > 100 µM (inactive) in the test with A549; 27.5 µM (inactive) in the test with Hs-578T.

As to `COc1ccc(/C(=N/N=c2[nH]c3ccccc3[nH]2)C(=O)O)cc1`, the GI50 in the test on HOP-62, in the test with MDA-MB-435, with TK-10, in the test with SK-MEL-2, in the test on SNB-19 and in the test with PC-3 was > 100 µM (inactive) each time. Also, the GI50 in the test on T47D, in the test on BT-549, in the test on ACHN, with SF-268, with SN12C and in the test with SK-MEL-5 was > 100 µM (inactive) in each case. In addition, the GI50 in the test with OVCAR-8, in the test with EKVX, with HOP-92, in the test on UACC-62, with SR and in the test with A549 was > 100 µM (inactive) each time. In addition, the GI50 with Hs-578T is > 100 µM (inactive).

`O=C(O)C1C(C(=O)O)C2C(=O)C=CC1N2Cc1ccccc1` (stereo not drawn): the GI50 was 2.59 µM (inactive) with HOP-62; 3.66 µM (inactive) in the test with MDA-MB-435; 2.72 µM (inactive) in the test with RXF 393; 2.84 µM (inactive) in the test on TK-10; 8.51 µM (inactive) with SK-MEL-2; 5.55 µM (inactive) in the test on SNB-19. Besides, the GI50 in the test on PC-3 was 5.58 µM (inactive); in the test on T47D, 3.46 µM (inactive); in the test on BT-549 it was 4.57 µM (inactive); in the test on ACHN it was 4.18 µM (inactive); with SF-268, 3.24 µM (inactive); with SN12C, 1.84 µM (inactive). Besides, the GI50 with SK-MEL-5 was 5.32 µM (inactive); in the test with OVCAR-8 it was 4.16 µM (inactive); with EKVX, 3.06 µM (inactive); in the test with HOP-92, 9.55 µM (inactive); in the test on UACC-62 it was 7.96 µM (inactive); with A549 it was 6.71 µM (inactive). Also, the GI50 in the test with Hs-578T is 2.82 µM (inactive).

As to `OCCOCCO[P+]1(OCCOCCO)n2c3ccc2C(c2ccccc2)=C2C=CC(=N2)C(c2ccccc2)=c2ccc(n21)=C(c1ccccc1)C1=NC(=C3c2ccccc2)C=C1`, the GI50 in the test with HOP-62 was 0.379 µM (active); in the test with MDA-MB-435, 0.0316 µM (active); with RXF 393, 0.548 µM (active); with TK-10, 0.426 µM (active); in the test with SK-MEL-2, 0.0395 µM (active); in the test on SNB-19 it was < 0.01 µM (active). Moreover, the GI50 with PC-3 is 0.107 µM (active); with T47D, 0.04 µM (active); with BT-549, 0.0385 µM (active); with ACHN, 0.35 µM (active); in the test on SF-268 it was 0.0618 µM (active); in the test with SN12C it was 0.11 µM (active). Besides, the GI50 with SK-MEL-5 is 0.0506 µM (active); in the test on OVCAR-8, 0.174 µM (active); in the test with EKVX, 0.32 µM (active); with UACC-62, 0.0618 µM (active); in the test on SR, 1 µM (active); in the test on A549, 0.113 µM (active). For the same compound, the GI50 in the test with Hs-578T is 0.127 µM (active).

As for `COc1cc2c(c(OC)c1OC)-c1ccc(=O)c(O)cc1[C@@H](NC(C)=O)CC2` [COLCHICEINE], the GI50 was 24.9 µM (inactive) with HOP-62; 18.4 µM (inactive) with MDA-MB-435; 37.9 µM (inactive) with TK-10; 25.5 µM (inactive) in the test on SK-MEL-2; 25.4 µM (inactive) in the test on SNB-19; 17.8 µM (inactive) with PC-3. The GI50 with T47D was 5.51 µM (inactive); in the test on BT-549, 14.6 µM (inactive); with ACHN, 18.1 µM (inactive); in the test on SF-268, 25.7 µM (inactive); in the test on SN12C it was 16.8 µM (inactive); in the test on SK-MEL-5, 7.66 µM (inactive). Also, the GI50 was 13.3 µM (inactive) with OVCAR-8; 19.7 µM (inactive) with EKVX; 20.2 µM (inactive) in the test on HOP-92; 13.2 µM (inactive) in the test on UACC-62; 2.99 µM (inactive) in the test on SR; 27.7 µM (inactive) in the test with A549. For the same compound, in the test with Hs-578T, the GI50 is 21.3 µM (inactive).

The values above are taken from ChEMBL document CHEMBL1201862, “PubChem BioAssay data set” (2004).
